Measured values: publication PMC4405350, “From Broad-Spectrum Biocides to Quorum Sensing Disruptors and Mussel Repellents: Antifouling Profile of Alkyl Triphenylphosphonium Salts” (PLoS ONE, 2015)
pIC50: −log10 of the molar value. Where two headings read alike, the source gives them in different places.

Tests used:
Alternaria sp. = assay: Marine-derived fungi growth inhibition (OD405); type: cell-based; settings: Alternaria, 120 h, read-out: IC50 Alternaria sp.
Protocol: (§1) All the biological assays were run by triplicate. […] For the active products, serial dilutions were performed to calculate the half-maximal inhibitory concentrations (IC50) or the minimal inhibitory concentrations (MIC). Unless otherwise stated, the test concentrations were 100, 50, 25, 10, 5, 2.5, 1, 0.5 and 0.1 μM. Dose-response curves were adjusted with GraphPad Prism 5 software using a four-parameter non-linear regression model.
(§2) Three strains of marine-derived fungi were kindly provided by Dr. Á. Trigos (University of Veracruz, Mexico). The strains were isolated from reef organisms collected from the Veracruz Reef System and identified as Aspergillus sp., Fusarium sp. and Alternaria sp..
(§3) Fungal strains were cultured in Potato-Dextrose Agar (PDA) supplemented with filtered seawater (FSW) (50% v/v) at 26 °C for 5 days prior to experiments. […] Briefly, fungal inocula were prepared by addition of 5 ml of sterile saline solution to the cultures. Gently swabbing released conidia. […] The plates were incubated for 5 days at 26 °C. The calculation of the half-maximal inhibitory concentrations (IC50) was performed using OD405 as endpoint.

Aspergillus sp. = assay: Marine-derived fungi growth inhibition (OD405); type: cell-based; settings: Aspergillus, 120 h, read-out: IC50 Aspergillus sp.
Protocol: as §1, §2, §3

Fusarium sp. = assay: Marine-derived fungi growth inhibition (OD405); type: cell-based; settings: Fusarium, 120 h, 5 days, 26 °C
Protocol: All the biological assays were run by triplicate.
as §2, §3

Amphora sp. = assay: Benthic diatom growth inhibition (chlorophyll-a); type: cell-based; settings: 120 h, read-out: IC50 Amphora sp.
Protocol: as §1
(§4) Five strains of benthic diatoms, Nitszchia sp. […] The Nitzschia and Navicula strains were purchased from the Spanish Bank of Algae (Marine Biotechnology Center, University of Las Palmas de Gran Canaria). The other three strains were kindly provided by Dr. G. Courtois (University of Las Palmas de Gran Canaria). Diatoms were cultured at 19±1 °C in Erlenmeyer flaks (250 ml) containing 150 ml of Guillard’s F/2 medium, and subjected to a photoperiod of 18:6. Tests were run in 48-well plates. Inocula were prepared by adjusting diatom concentration to 2–4 × 10^6 cells ml^-1 using a Neubauer chamber. Test products were dissolved in F/2 medium (500 μl) to which diatom inocula (500 μl) were added. Thus, the final assay volume was 1 ml and the starting cell densities were ca. 1–2 x 10^6 diatoms ml^-1. Plates were incubated under the abovementioned conditions for 5 days and then chlorophyll-a (Chla) was quantified.
(§5) In order to extract Chla, the content of each well was transferred to a microcentrifuge tube and centrifuged at 10,000 rpm for 10 min. The supernatants were discarded and 200 μl of DMSO were added to the pellets. The tubes were incubated at 65 °C for 2 h in total darkness and vortexed every 30 min. Then, the content of each tube was transferred to a 96-well plate and the amount of Chla was determined spectrophotometrically. Path length correction factor for the DMSO extracts was determined.

Cylindrotheca sp. = assay: Benthic diatom growth inhibition (chlorophyll-a); type: cell-based; settings: 120 h, read-out: IC50 Cylindrotheca sp.
Protocol: as §1, §4, §5

[1] = test system: Navicula cf. salinicola BEA 0055; assay: Benthic diatom growth inhibition (chlorophyll-a); type: cell-based; settings: 120 h, read-out: IC50 Navicula cf. salinicola
Protocol: as §1, §4, §5

Nitzschia sp. = assay: Benthic diatom growth inhibition (chlorophyll-a); type: cell-based; settings: 120 h, read-out: IC50 Nitzschia sp.
Protocol: as §1, §4, §5

[2] = test system: Phaeodactylum tricornutum; assay: Benthic diatom growth inhibition (chlorophyll-a); type: cell-based; settings: Phaeodactylum tricornutum, 120 h, read-out: IC50 P. tricornutum
Protocol: as §1, §4, §5

[3] = test system: violacein production of C. violaceum CVO26; assay: Quorum sensing bioassay: violacein production; type: cell-based, Chromobacterium violaceum; settings: 18 h; for pIC50: Chromobacterium violaceum, read-out: IC50 (Violacein inhibition)
Protocol: The reporter strain C. violaceum CVO26 (CECT 5999) was used to screen the ability of the products to interfere with violacein production, a QS-regulated phenotype. C. violaceum CVO26 is a mini-Tn5 mutant that depends on an exogenous source of autoinducer (AI) (N-hexanoyl homoserine lactone, HHL) for violacein production. C. violaceum CVO26 was cultured in LB broth (Sigma-Aldrich) supplemented with 25 μg ml^-1 kanamycin. Inocula were prepared by dilution (1:100) of an overnight culture of the reporter strain [49]. One hundred microliters of inoculum with HHL (Sigma-Aldrich, 6 μM) or without the AI were added to 96-well plates containing 100 μl of the appropriate dilutions of the test products in LB. Thus, two sets of plates were prepared. One set of plates (without HHL) was used to evaluate the effect of the products on bacterial growth, whereas the other set of plates (with HHL) was used to evaluate their effect on violacein production. Both sets of plates were incubated at 30 °C with agitation (150 rpm) for 18 h.
Growth inhibition was quantified in the first batch of plates by re-suspending bacterial pellets and measuring the OD625. From the second batch of plates violacein was extracted and quantified. Briefly, the plates were dried overnight (60 °C) and violacein was re-solubilized by the addition of 200 μl of DMSO. The plates were shaken for 3 h and then the OD590 was determined.
To evaluate the effect of the alkyl triphenylphosphonium salts on QS-regulated phenotypes, an initial screening at the cut-off concentration of 100 μM was conducted with C. violaceum CVO26. The QS model of C. violaceum is relatively simple and consists of an acyl-homoserine lactone synthase (CviI) that produces the AI molecule N-hexanoyl homoserine lactone (HHL, strain ATCC 31532), or N-3-hydroxydecanoyl homoserine lactone (strain ATCC 12472) which is recognized by the cytoplasmic receptor CviR (Fig 4). The reporter strain CVO26 is a CviI::mini-Tn5 mutant of strain ATCC 31532 and thus recognizes HHL. CviR is a DNA-binding transcription factor that activates the expression of the genes encoding the production of violacein, the characteristic purple alkaloid that gives name to the species.
Indeed, the inhibitions observed in violacein production for long alkyl chains (10–18, 20) were clearly correlated to the biocidal effect exerted by these compounds, with ‘therapeutic ratios’ (IC50 for growth inhibition/IC50 for violacein inhibition) around 1, in general (Table 2). Note that, as the length of the hydrocarbon chain becomes shorter, this ratio increased (8–9). […] To evaluate these compounds in further detail, […] stock solutions were prepared […] to avoid the use of high concentrations of DMSO in the bioassays. […] Serial two-fold dilutions (500–3.9 μM) were assayed. Consequently, the highest amount of DMSO used in the assay was 0.25% (v/v). […] Growth inhibitory effects are only observed at 500 μM, particularly for compound 7 (Fig 6D).

[4] = growth inhibition, 5 days, 26 °C

Row | SMILES | pIC50 (Alternaria sp.; [4]) | pIC50 (Aspergillus sp.; [4]) | pIC50 (Fusarium sp.) | pIC50 (Amphora sp.; growth, 5 days, chlorophyll-a) | pIC50 (Cylindrotheca sp.; growth, 5 days, chlorophyll-a) | pIC50 ([1]; growth, 5 days, chlorophyll-a) | pIC50 (Nitzschia sp.; growth, 5 days, chlorophyll-a) | pIC50 ([2]; growth, 5 days, chlorophyll-a) | pIC50 [3] | IC50 (Violacein inhibition) ([3]; with HHL, compounds 3-5 and 7 tested up to 500 μM, others up to 100 μM) | pIC50 (Alternaria sp.) | pIC50 (Aspergillus sp.) | pIC50 (Amphora sp.) | pIC50 (Cylindrotheca sp.) | pIC50 [1] | pIC50 (Nitzschia sp.) | pIC50 [2]
1 | CCCCCCCCCCCCCCCC[P+](c1ccccc1)(c1ccccc1)c1ccccc1 [Compound 16] | 5.85 | 5.28 | 5.03 | 5.59 | 5.33 | 5.89 | 5.31 | 5.89 | 5.38 | – | – | – | – | – | – | – | –
2 | C/C=C/C[P+](c1ccccc1)(c1ccccc1)c1ccccc1 [Compound 3] | < 4.00 | < 4.00 | < 4.00 | < 4.00 | < 4.00 | 4.21 | < 4.00 | < 4.00 | 4.03 | – | – | – | – | – | – | – | –
3 | O=S(=O)([O-])CCCC[P+](c1ccccc1)(c1ccccc1)c1ccccc1 [Compound 6] | < 4.00 | < 4.00 | < 4.00 | < 4.00 | 4.67 | < 4.00 | < 4.00 | < 4.00 | < 4.00 | – | – | – | – | – | – | – | –
4 | CCCCCCCCC[P+](c1ccccc1)(c1ccccc1)c1ccccc1 [Compound 9] | 5.13 | 5.00 | 4.50 | 5.21 | 5.72 | 5.57 | 5.44 | 4.95 | 5.12 | – | – | – | – | – | – | – | –
5 | CCCCCCCCCCCCCCCCCCC[P+](c1ccccc1)(c1ccccc1)c1ccccc1 [Compound 18] | 5.28 | 4.71 | 5.14 | 5.47 | 5.16 | 6.10 | 5.32 | 4.77 | 4.45 | – | – | – | – | – | – | – | –
6 | CCCCCCCCCCCCCCCCCC[P+](c1ccccc1)(c1ccccc1)c1ccccc1 [Compound 17] | 5.89 | 4.99 | 5.06 | 5.38 | 5.10 | 5.92 | 5.12 | 5.13 | 5.15 | – | – | – | – | – | – | – | –
7 | CCCCCCCCCCCCCC[P+](c1ccccc1)(c1ccccc1)c1ccccc1 [Compound 14] | 6.15 | 5.28 | 5.29 | 5.68 | 5.35 | 5.92 | 5.46 | 5.82 | 5.34 | – | – | – | – | – | – | – | –
8 | O=C(O)CCCCCCCCCC[P+](c1ccccc1)(c1ccccc1)c1ccccc1 [Compound 19] | < 4.00 | < 4.00 | < 4.00 | 4.12 | 4.62 | < 4.00 | < 4.00 | < 4.00 | < 4.00 | – | – | – | – | – | – | – | –
9 | CCCCCCCCCCCCCCC[P+](c1ccccc1)(c1ccccc1)c1ccccc1 [Compound 15] | 5.54 | 5.28 | 5.38 | 5.51 | 5.66 | 5.55 | 5.44 | 5.96 | 5.92 | – | – | – | – | – | – | – | –
10 | CCCCC[P+](c1ccccc1)(c1ccccc1)c1ccccc1 [Compound 7] | < 4.00 | < 4.00 | < 4.00 | < 4.00 | < 4.00 | < 4.00 | < 4.00 | < 4.00 | 4.28 | – | – | – | – | – | – | – | –
11 | BrCCCC[P+](c1ccccc1)(c1ccccc1)c1ccccc1 [Compound 4] | < 4.00 | < 4.00 | < 4.00 | < 4.00 | < 4.00 | < 4.00 | < 4.00 | < 4.00 | 3.85 | – | – | – | – | – | – | – | –
12 | COC(=O)CCC[P+](c1ccccc1)(c1ccccc1)c1ccccc1 [Compound 2] | < 4.00 | < 4.00 | < 4.00 | 4.36 | 4.63 | 4.30 | 4.40 | < 4.00 | < 4.00 | inactive | – | – | – | – | – | – | –
13 | CCCCCCCCCCCCC[P+](c1ccccc1)(c1ccccc1)c1ccccc1 [Compound 13] | 5.80 | 5.32 | 5.19 | 5.35 | 5.77 | 5.74 | 5.66 | 6.00 | 5.41 | – | – | – | – | – | – | – | –
14 | CCCCCCCCCCCC[P+](c1ccccc1)(c1ccccc1)c1ccccc1 [Compound 12] | – | – | 5.18 | – | – | – | – | – | 5.18 | – | 5.92 | 5.12 | 5.32 | 6.00 | 5.89 | 5.66 | 5.92
15 | CCCCCCC[P+](c1ccccc1)(c1ccccc1)c1ccccc1 [Compound 8, heptyl triphenylphosphonium bromide] | 4.92 | 4.91 | < 4.00 | 4.42 | 4.97 | 5.19 | 4.68 | 4.04 | 4.72 | – | – | – | – | – | – | – | –
16 | CCCCN[P+](c1ccccc1)(c1ccccc1)c1ccccc1 [Compound 5] | < 4.00 | < 4.00 | < 4.00 | 4.37 | 4.90 | 5.09 | 4.92 | 4.09 | 3.86 | – | – | – | – | – | – | – | –
17 | CCCCCCCCCC[P+](c1ccccc1)(c1ccccc1)c1ccccc1 [Compound 10] | 5.28 | 4.93 | 4.68 | 5.49 | 6.00 | 5.64 | 5.60 | 5.72 | 5.11 | – | – | – | – | – | – | – | –
